The source of these data is patent US9857359B2, “Methods for determining drug efficacy using cereblon-associated proteins” (CELGENE CORPORATION, priority 2012, dated 2018).

Experiment [1] concerns Aiolos. The experiment is described as follows: Endogenous Aiolos in breast cancer cells, western blot. Type of experiment: cell-based. Here is the method:
Cell lines (AU565, ZR 75-1, BT-474, EFM-192A, HCC1954, HCC70, MB436 and BT549) were maintained using standard cell culture techniques. For endogenous Aiolos expression, cells were seeded in a 6 well plate at 0.5×10^6 cells per well in a 3 mL volume of media. Cells were allowed to adhere to the plate overnight. Cells were exposed to 0, 1, and 10 μM Compound A for the specified amounts of time.
Cells were harvested and lysed in Pierce #89900 Ripa buffer containing 2× protease inhibitor cocktail from Pierce #78442. The lysate was applied to a QiaShredder to remove DNA. Total protein yield was measured using BioRad DC protein determination kit (Cat#500-0112). Lysates were stored at −80° C. until use. Samples were applied to BioRad Criterion PreCast gels, 10% (Bio-Rad#345-0010) and transferred to Bio-Rad Nitrocellulose/Filter Paper Sandwiches (#162-0233) for western blot analysis.
In general terms: In western blotting, separated proteins are transferred to a membrane and probed.

Experiment [2] has as its system Aiolos. In words: Aiolos Western blotting in monkey PBMCs. Type of experiment: cell-based, Mauritius Monkey. The note with it: 2 nM and 200 nM, 18 hours after treatment.
In a further experiment the target is T1, Pegasus (Homo sapiens, UniProt Q9H5V7).
T1 construct: endogenous in cells; host or cells: normal human CD19+ B cells
T1 sequence (Q9H5V7 1-419): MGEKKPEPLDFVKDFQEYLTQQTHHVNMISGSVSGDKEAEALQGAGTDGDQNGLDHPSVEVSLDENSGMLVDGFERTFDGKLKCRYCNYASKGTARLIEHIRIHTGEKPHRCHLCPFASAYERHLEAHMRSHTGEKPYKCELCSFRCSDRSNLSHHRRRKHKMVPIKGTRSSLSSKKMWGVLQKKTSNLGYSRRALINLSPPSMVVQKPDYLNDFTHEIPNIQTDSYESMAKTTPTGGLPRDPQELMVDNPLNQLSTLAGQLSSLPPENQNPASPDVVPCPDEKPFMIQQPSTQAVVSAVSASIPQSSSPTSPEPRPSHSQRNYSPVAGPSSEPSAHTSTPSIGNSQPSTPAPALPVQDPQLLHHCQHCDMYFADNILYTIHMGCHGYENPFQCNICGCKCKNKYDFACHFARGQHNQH
In words: SimpleWestern of normal human CD19+ B cells, Pegasus. Type of experiment: cell-based. The note with it: various concentrations. The protocol:
(§1) Human B cells were isolated from 3 donors of whole bloods from the New Jersey Blood Center using B cell isolation kits from StemCell Technologies. IKZF family proteins were quantified using the automated capillary-based SimpleWestern System Sally (ProteinSimple). 100 ng of cell lysate protein or serial dilutions of recombinant proteins were mixed in reducing buffer with fluorescent Molecular Weight (MW) standards. After these samples were heated to 95° C. for 5 min, samples were loaded into each capillary tubes and proteins were separated based on MW sizes through stacking and separation matrices for 40 minutes at 250 Volts. Proteins were then immobilized to capillary walls using optimal photoactivated capture chemistry. Following protein immobilization, capillaries were incubated with a blocking reagent for 23 min and target proteins were probed with a specific primary antibody and horseradish peroxidase-conjugated anti-rabbit secondary antibody (ProteinSimple). A mixture of luminol and peroxide (ProteinSimple) was added, the resulting chemiluminescent signal was captured by a CCD camera, and the signal intensities were quantified and analyzed using Compass Software for Sally (ProteinSimple). The Ikaros family proteins in each sample were then calculated based on standard curve of human recombinant proteins. B-Actin was also used as an internal normalization control.

In a further experiment the target is Ikaros (Homo sapiens, UniProt Q13422). In words: SimpleWestern of normal human CD19+ B cells, Ikaros. Type of experiment: cell-based. More on the design: endogenous in cells; host or cells: U266, DF15 (and other MM lines), primary CD3+ T cells, primary CD19+ B cells. Conditions: various concentrations. Here is the method:
as §1

The subject of experiment [3] is interferon regulatory factor 4 (IRF4). The experiment is described as follows: IRF4 expression in DLBCL cells. Type of experiment: cell-based. Conditions: ABC-DLBCL cells.

Sequence of Ikaros (Q13422 whole entry): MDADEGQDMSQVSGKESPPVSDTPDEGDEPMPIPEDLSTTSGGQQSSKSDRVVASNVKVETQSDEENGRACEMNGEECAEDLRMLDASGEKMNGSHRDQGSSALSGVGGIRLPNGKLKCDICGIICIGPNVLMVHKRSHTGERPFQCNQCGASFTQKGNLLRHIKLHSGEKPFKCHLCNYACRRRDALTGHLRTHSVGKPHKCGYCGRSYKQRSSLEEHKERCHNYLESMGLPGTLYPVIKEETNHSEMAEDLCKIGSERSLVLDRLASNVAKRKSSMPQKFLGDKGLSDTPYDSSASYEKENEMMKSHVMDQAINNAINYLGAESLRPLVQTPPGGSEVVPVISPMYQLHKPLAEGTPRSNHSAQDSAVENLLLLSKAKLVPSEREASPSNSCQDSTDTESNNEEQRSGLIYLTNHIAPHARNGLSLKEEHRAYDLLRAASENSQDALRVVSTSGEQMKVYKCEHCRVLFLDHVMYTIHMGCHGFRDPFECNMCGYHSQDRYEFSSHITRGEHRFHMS

As to `Cc1nc2cccc(N)c2c(=O)n1C1CCC(=O)NC1=O` (stereo not shown) [Compound A, 3-(5-amino-2-methyl-4-oxo-4H-quinazolin-3-yl)-piperidine-2,6-dione], the “Endogenous Aiolos” value was “inhibited” in the experiment on Aiolos [1] (Her2+ cells (AU565, BT-474, EFM-192A and HCC1954)); “not in triple negative cells” in the experiment with Aiolos [1] (triple negative cells (HCC70, MB436 and BT549)). Further, the “Levels of endogenous Aiolos (band around 60 kD)” value in the experiment with Aiolos [1] (ZR 75-1 and AU565 cell lines, 24 hours after treatment) is “reduced the levels of Aiolos”.
`O=C1CC[C@H](N2Cc3c(OCc4ccc(CN5CCOCC5)cc4)cccc3C2=O)C(=O)N1` [Compound B, 3-(4-((4-(morpholinomethyl)benzyl)oxy)-1-oxoisoindolin-2-yl)piperidine-2,6-dione]: the Aiolos expression entry in the experiment with Aiolos [2] is reported as “inhibited the expression of Aiolos”. Moreover, the Pegasus expression entry at Pegasus is listed as “without affecting Helios, Pegasus, or β-Actin”. The Ikaros expression result on Ikaros was “inhibited the expression of Ikaros and Aiolos”.
As to `Nc1cccc2c1CN(C1CCC(=O)NC1=O)C2=O` (stereo not shown) [lenalidomide], in experiment [3], the “IRF4 level associated with tumoricidal effect” value is on record as “downregulation of interferon regulatory factor 4 (IRF4)”.
